{
  "source": "paper PMC10122656",
  "about": "“Siglec-6 mediates the uptake of extracellular vesicles through a noncanonical glycolipid binding pocket” (Nature Communications, 2023)",
  "key": {"[1]": {"biological_target": "T1, Daudi cells transduced with WT Siglec-6 (Homo sapiens, UniProt O43699)", "T1 construct": "expressed in transfected cells; host or cells: Daudi cells (human B-cell line), lentiviral transduction", "T1 sequence (O43699 27-453)": "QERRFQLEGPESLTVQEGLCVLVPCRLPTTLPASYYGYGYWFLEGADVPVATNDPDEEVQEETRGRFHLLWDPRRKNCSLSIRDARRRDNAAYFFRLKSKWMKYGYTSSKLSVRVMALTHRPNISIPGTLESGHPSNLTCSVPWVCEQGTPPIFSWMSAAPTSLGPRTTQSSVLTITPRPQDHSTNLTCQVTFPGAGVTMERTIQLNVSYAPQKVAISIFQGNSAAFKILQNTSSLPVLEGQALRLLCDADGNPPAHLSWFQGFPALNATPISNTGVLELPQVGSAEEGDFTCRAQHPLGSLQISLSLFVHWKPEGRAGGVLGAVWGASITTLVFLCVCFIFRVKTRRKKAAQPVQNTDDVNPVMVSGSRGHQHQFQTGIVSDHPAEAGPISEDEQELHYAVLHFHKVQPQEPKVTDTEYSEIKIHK", "assay": "pHrodo internalization assay by flow cytometry", "assay_type": "cell-based", "details": "for liposome internalization signal (replicates): sheet Figure S42b", "method": "Siglec-6 lentivirus was produced as previously reported by Bhattacherjee, A. et al.[72]. Briefly, 1 × 10^6 HEK293T cells were plated in a 6-well dish containing 1.5 mL of DMEM growth medium (Gibco) containing 10% (V/V) fetal bovine serum (FBS; Gibco), 100 U/mL penicillin (Gibco) and 100 µg/mL streptomycin (Gibco). 24 h later, a mixture of 625 ng RP18, 625 ng RP19, 1250 ng hSiglec-6 vector, 7.5 µL TransIT®-LT1 Reagent (Mirus Bio), and Opti-MEM media (Gibco) was added to the HEK293T cells. Cells were incubated with this transfection mixture at 37 °C, 5% CO2 for 72 h. Following transfection, the cell supernatant was harvested and concentrated using Lenti-X concentrator reagent (Takara Bio) following the manufacturer’s instructions.\n1.5 × 10^5 Daudi cells were plated in a 24-well plate in 250 µL of RPMI growth medium (Gibco) containing 10% (V/V) fetal bovine serum (FBS; Gibco), 100 U/mL penicillin (Gibco) and 100 µg/mL streptomycin (Gibco). A range of 10X concentrated lentivirus (1, 2, 5, 10 µL) was added to the corresponding wells and incubated for approximately 8 h at 37 °C, 5% CO2 in a tissue culture incubator. After incubation, the media in each well was topped up to 750 µL. Three days post-transduction, 200 µL of cells were plated in a 96-well U-bottom plate and centrifuged at 300 × g for 5 min. The cell pellets were resuspended in 150 µL of flow cytometry buffer (HBSS containing 1% (V/V) FBS, 500 µM EDTA) and the titer of each virus was determined by measuring the mAmentrine+ cells in each well by flow cytometry. The mAmetrine+ cells, ranging from 0.5% to 5%, were re-plated in six-well plates. The mAmetrine+ virally transduced cells were selected for using 300 µg/mL zeocin until the mAmetrine+ population was ≥95%.\nHuman peripheral blood, taken under an approved institutional ethics protocol, was centrifuged at 1700 × g for 5 min at 4 °C. The upper phase (plasma) was collected and centrifuged at 10,000 × g for 30 min at 4 °C. […]"}, "[2]": {"system": "Siglec-1-Fc R116A", "sequence (Q9BZZ2 20-136 R116A limits assumed)": "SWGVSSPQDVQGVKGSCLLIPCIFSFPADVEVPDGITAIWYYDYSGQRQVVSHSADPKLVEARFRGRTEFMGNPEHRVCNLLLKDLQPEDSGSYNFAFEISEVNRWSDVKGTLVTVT", "assay": "Liposome over lectin assay (LOLA)", "assay_type": "binding, human", "details": "Siglec-1 R (arginine mutant); replicates", "method": "Siglec-Fc constructs designed by Rodrigues et al.[30] were used in this work. Siglec-Fc constructs were expressed using WT CHO cells in cell culture media as described above with 1% HEPES. Cells incubated as described above for one-week post confluency. The supernatant was harvested and stored at 4 °C.\nThe purification was heavily inspired by Rodrigues et al.[30]. The purification of the Siglec-Fcs from supernatant began with Ni^2+ affinity chromatography using an AKTA FPLC equipped with a HisTrap Excel column (GE). The column was equilibrated with fifteen column volumes (CVs) of equilibrium buffer (500 mM NaCl, 20 mM NaPO4H2, pH 7.4). The Siglec-Fc containing supernatant was then loaded in its entirety onto the column. The column was then washed with fifteen CVs of wash buffer (500 mM NaCl, 30 mM imidazole, 20 mM NaPO4H2, pH 7.4). The Siglec-Fc was then eluted in 20 in 1 mL fractions with twenty CVs of elution buffer (500 mM NaCl, 500 mM imidazole, 20 mM NaPO4H2, pH 7.4). Fractions containing Siglec-Fc were compiled and then prepared for the next stage of purification by diluting the fractions 1:4 with buffer W (100 mM Tris–HCl, 150 mM NaCl, 1 mM EDTA, pH 8.0). A Strep-Tactin column (IBA life sciences) was washed with fifteen CVs of buffer W. The Siglec-Fc-buffer W solution was then loaded in its entirety onto the column. The bound Siglec-Fc was then washed with fifteen CVs of buffer W. Siglec-Fc was eluted from the column with 15 column volumes of buffer E (100 mM Tris–HCl, 150 mM NaCl, 1 mM EDTA, 10 mM d-Desthiobiotin, pH 8.0). Fractions containing Siglec-Fc were pooled and dialyzed against PBS to remove any d-Desthiobiotin. After dialysis, Siglec-Fcs were concentrated using an ultra-centrifugal device (30 kDa MWCO) and aliquoted into 5 µg aliquots, and frozen. The Siglec-Fcs were then lyophilized overnight, and the lyophilized Siglec-Fcs were stored at −20 °C.\nSiglec-Fc in PBS was adsorbed to a 96-well flat-bottom fluorescent microplate by adding 1 µg/well and incubating the plate at 4 °C overnight. The plate was then washed with PBS followed by blocking with 5% (m/V) BSA in PBS for 1 h at room temperature. The plate was again washed with PBS and 100 µM liposome in PBS was added to each well. The plate was then incubated at 37 °C for 30 min followed by washing with PBS. PBS was then added to the plate and the fluorescence intensity (λex 640 nm, λem 680 nm) of each well was measured using a Molecular Devices SpectraMAX ® iD5."}},
  "note": "Several values for one entry are separate records, joined by “and”; a condition that tells them apart may be missing. Identical values can stand only once.",
  "data": [
    {"compound": "CCCCCCCCCCCCCCCCOCC(COCCCCCCCCCCCCCCCC)OCc1cn(CCO[C@@H]2O[C@H](CO)[C@@H](O[C@@H]3O[C@H](CO)[C@H](O)[C@H](O[C@]4(C(=O)O)C[C@H](O)[C@@H](NC(C)=O)[C@H]([C@H](O)[C@H](O)CO)O4)[C@H]3O)[C@H](O)[C@H]2O)nn1", "note": "[nGL 5]", "values": [
      {"measurement": "pHrodo signal of 5 nGLLs in Siglec-6 Daudi cells", "setting": "[1]; independent of Arg122, only at 37 °C", "value": "time-dependent increase in pHrodo signal"}
    ]},
    {"compound": "GM1", "values": [
      {"measurement": "LOLA: GLL binding, fluorescence plate reader (Fig. 2e)", "setting": "[2]", "value": "6.6 and 6.11 and 3.97 and 6.44 and 3.68"}
    ]},
    {"compound": "GD3", "values": [
      {"measurement": "LOLA: GLL binding, fluorescence plate reader (Fig. 2e)", "setting": "[2]", "value": "6.08 and 3.44 and 4.47 and 3.34 and 3.26"}
    ]},
    {"compound": "GM3", "values": [
      {"measurement": "liposome internalization signal (replicates)", "setting": "[1]; WT-4", "value": "16.4 and 15.8 and 17.6 and 19.4"},
      {"measurement": "liposome internalization signal (replicates)", "setting": "[1]; WT-37", "value": "30.6 and 27.6 and 33.7 and 27.8"}
    ]},
    {"compound": "GQ1b", "values": [
      {"measurement": "LOLA: GLL binding, fluorescence plate reader (Fig. 2e)", "setting": "[2]", "value": "6.93 and 2.97 and 4.43 and 6.13 and 5.67"}
    ]},
    {"compound": "GD1a", "values": [
      {"measurement": "LOLA: GLL binding, fluorescence plate reader (Fig. 2e)", "setting": "[2]", "value": "8.88 and 7.01 and 5.82 and 9.99 and 5.45"}
    ]}
  ]
}
